Several values for one entry are separate records, joined by “and”; a condition that tells them apart may be missing. Identical values can stand only once. Toxic doses and inconclusive results are not listed.
Tested on: P388 leukemia ip, CD2F1 mice, survival T/C
Assay: NCI In Vivo Anticancer Drug Screen. Data for tumor model P388 Leukemia (intraperitoneal) in CD2F1 (CDF1) mice
Settings: endpoint: median survival time, higher = longer survival
Procedure, shortened: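 Mice carrying the transplanted tumor received test compound or vehicle. Survival was recorded in each group, and the value is the treated-group measurement divided by that of the vehicle-treated control group.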

[1] = dose: 100.0 mg/kg/injection, schedule: Q04DX002 (ip), vehicle: saline with Tween-80
[2] = dose: 60.0 mg/kg/injection, schedule: Q01DX005 (ip), vehicle: saline
[3] = dose: 120.0 mg/kg/injection, schedule: Q01DX005 (ip), vehicle: saline
[4] = dose: 240.0 mg/kg/injection, schedule: Q01DX005 (ip), vehicle: saline
[5] = dose: 60.0 mg/kg/injection, schedule: Q01DX005 (ip), vehicle: saline with Tween-80
[6] = dose: 120.0 mg/kg/injection, schedule: Q01DX005 (ip), vehicle: saline with Tween-80
[7] = dose: 240.0 mg/kg/injection, schedule: Q01DX005 (ip), vehicle: saline with Tween-80
[8] = dose: 50.0 mg/kg/injection, schedule: Q01DX009 (ip), vehicle: saline with Tween-80
[9] = dose: 100.0 mg/kg/injection, schedule: Q01DX009 (ip), vehicle: saline with Tween-80
[10] = dose: 200.0 mg/kg/injection, schedule: Q01DX009 (ip), vehicle: saline with Tween-80
[11] = dose: 50.0 mg/kg/injection, schedule: Q01DX009 (ip), vehicle: saline
[12] = dose: 100.0 mg/kg/injection, schedule: Q01DX009 (ip), vehicle: saline
[13] = dose: 50.0 mg/kg/injection, schedule: Q01DX005 (ip), vehicle: Klucel (hydroxypropylcellulose) (HPC)
[14] = dose: 100.0 mg/kg/injection, schedule: Q01DX005 (ip), vehicle: Klucel (hydroxypropylcellulose) (HPC)
[15] = dose: 200.0 mg/kg/injection, schedule: Q01DX005 (ip), vehicle: Klucel (hydroxypropylcellulose) (HPC)
[16] = dose: 15.0 mg/kg/injection, schedule: Q01DX005 (ip), vehicle: saline with Tween-80
[17] = dose: 30.0 mg/kg/injection, schedule: Q01DX005 (ip), vehicle: saline with Tween-80
[18] = dose: 50.0 mg/kg/injection, schedule: Q01DX009 (ip), vehicle: Klucel (hydroxypropylcellulose) (HPC)
[19] = dose: 200.0 mg/kg/injection, schedule: Q01DX009 (ip), vehicle: Klucel (hydroxypropylcellulose) (HPC)

CCN(CC)CCNc1cc2ccccc2c2sc3ccccc3c(=O)c12
T/C (dose: 25.0 mg/kg/injection, schedule: Q01DX005 (ip), vehicle: distilled water + Tween-80): 102 % of control | T/C (dose: 50.0 mg/kg/injection, schedule: Q01DX005 (ip), vehicle: distilled water + Tween-80): 103 % of control

CC1CCP(c2ccccc2)C1 (configuration not stated)
T/C (dose: 100.0 mg/kg/injection, schedule: Q01DX001 (ip), vehicle: saline with Tween-80): 105 % of control | T/C (dose: 200.0 mg/kg/injection, schedule: Q01DX001 (ip), vehicle: saline with Tween-80): 116 % of control

CCCC1CCC(=C2C(=O)CCC2=O)O1 (configuration not stated)
T/C (dose: 25.0 mg/kg/injection, schedule: Q04DX002 (ip), vehicle: saline): 102 % of control | T/C (dose: 50.0 mg/kg/injection, schedule: Q04DX002 (ip), vehicle: saline): 102 % of control | T/C [1]: 110 % of control | T/C (dose: 100.0 mg/kg/injection, schedule: Q04DX002 (ip), vehicle: saline): 103 % of control | T/C (dose: 200.0 mg/kg/injection, schedule: Q04DX002 (ip), vehicle: saline with Tween-80): 102 % of control | T/C (dose: 200.0 mg/kg/injection, schedule: Q04DX002 (ip), vehicle: saline): 100 % of control

CC1=NCCN=C(C)C1N=Nc1ccc(S(=O)(=O)N=C(N)N)cc1
T/C (dose: 100.0 mg/kg/injection, schedule: Q04DX003 (ip), vehicle: saline with Tween-80): 90 % of control | T/C (dose: 200.0 mg/kg/injection, schedule: Q04DX003 (ip), vehicle: saline with Tween-80): 92 % of control | T/C (dose: 400.0 mg/kg/injection, schedule: Q04DX003 (ip), vehicle: saline with Tween-80): 90 % of control

O=P(O)(O)O
T/C [2]: 97 % of control | T/C [3]: 97 % of control | T/C [4]: 90 % of control

CCCSc1ccc([N+](=O)[O-])cc1
T/C (dose: 25.0 mg/kg/injection, schedule: Q04DX002 (ip), vehicle: saline with Tween-80): 103 % of control | T/C (dose: 50.0 mg/kg/injection, schedule: Q04DX002 (ip), vehicle: saline with Tween-80): 104 % of control | T/C [1]: 106 % of control

C[C@]12CC[C@H]([C@@]3(C)CC[C@H]4CC[C@]43O)[C@@H](CO)[C@@H]1CC[C@@H]2O
T/C [5]: 104 % of control | T/C [6]: 98 % of control | T/C [7]: 91 % of control

NC(N)=NS(=O)(=O)c1ccc(NCc2c3ccccc3nc3cc(Cl)ccc23)cc1
T/C [5]: 170 % of control | T/C [6]: 121 % of control | T/C [7]: 116 % of control

OC1(C2=COCCO2)CCCCC1
T/C [2]: 105 % of control | T/C [3]: 110 % of control | T/C [4]: 105 % of control

Clc1ccccc1CSCc1c(CSCc2ccccc2Cl)c(CSCc2ccccc2Cl)c(CSCc2ccccc2Cl)c(CSCc2ccccc2Cl)c1CSCc1ccccc1Cl
T/C [8]: 102 % of control | T/C [9]: 100 % of control | T/C [10]: 100 % of control

CC(C)n1cnc2c(Cl)ncnc21
T/C (dose: 25.0 mg/kg/injection, schedule: Q01DX009 (ip), vehicle: saline with Tween-80): 100 % of control | T/C [8]: 104 % of control | T/C [9]: 95 % of control

CC1CN1P(=O)(OCCCl)N1CC1C (configuration not stated)
T/C (dose: 44.0 mg/kg/injection, schedule: Q04DX003 (ip), vehicle: saline): 113 % of control | T/C [11]: 120 % of control | T/C (dose: 66.0 mg/kg/injection, schedule: Q04DX003 (ip), vehicle: saline): 113 % of control | T/C [12]: 120 % of control | T/C (dose: 100.0 mg/kg/injection, schedule: Q04DX003 (ip), vehicle: saline): 118 % of control | T/C (dose: 150.0 mg/kg/injection, schedule: Q04DX003 (ip), vehicle: saline): 86 % of control

NC(CSSCC(NC(=O)c1ccccc1)C(=O)O)C(=O)O (configuration not stated)
T/C [13]: 103 % of control and 99 % of control | T/C [14]: 106 % of control and 96 % of control | T/C [15]: 100 % of control and 101 % of control and 111 % of control

C=CN=NNc1ccccc1OC
T/C (dose: 100.0 mg/kg/injection, schedule: Q04DX003 (ip), vehicle: saline + Tween-80 + alcohol): 107 % of control | T/C (dose: 200.0 mg/kg/injection, schedule: Q04DX003 (ip), vehicle: saline + Tween-80 + alcohol): 105 % of control | T/C (dose: 400.0 mg/kg/injection, schedule: Q04DX003 (ip), vehicle: saline + Tween-80 + alcohol): 107 % of control

O=S(=O)(O)SCCNCCCCC1CCCCC1
T/C (dose: 3.75 mg/kg/injection, schedule: Q01DX005 (ip), vehicle: saline with Tween-80): 99 % of control | T/C (dose: 7.5 mg/kg/injection, schedule: Q01DX005 (ip), vehicle: saline with Tween-80): 90 % of control | T/C [16]: 101 % of control and 104 % of control | T/C [17]: 111 % of control | T/C [5]: 120 % of control

O=C(c1ccccc1)c1ccc(NC(=O)C(F)(F)F)cc1
T/C [8]: 88 % of control | T/C [9]: 86 % of control | T/C [10]: 99 % of control

O=C1CSc2ccccc2N1
T/C (dose: 6.25 mg/kg/injection, schedule: Q01DX009 (ip), vehicle: suspension in saline): 102 % of control | T/C (dose: 12.5 mg/kg/injection, schedule: Q01DX009 (ip), vehicle: Klucel (hydroxypropylcellulose) (HPC)): 105 % of control | T/C (dose: 12.5 mg/kg/injection, schedule: Q01DX009 (ip), vehicle: suspension in saline): 104 % of control | T/C (dose: 25.0 mg/kg/injection, schedule: Q01DX009 (ip), vehicle: Klucel (hydroxypropylcellulose) (HPC)): 97 % of control | T/C (dose: 25.0 mg/kg/injection, schedule: Q01DX009 (ip), vehicle: suspension in saline): 99 % of control | T/C [18]: 88 % of control and 95 % of control | T/C (dose: 50.0 mg/kg/injection, schedule: Q01DX009 (ip), vehicle: suspension in saline): 104 % of control | T/C [19]: 100 % of control | T/C (dose: 400.0 mg/kg/injection, schedule: Q01DX009 (ip), vehicle: Klucel (hydroxypropylcellulose) (HPC)): 99 % of control

Nc1ccn(COC(COCc2ccccc2)COCc2ccccc2)c(=O)n1
T/C [5]: 105 % of control | T/C [6]: 96 % of control | T/C [7]: 110 % of control

OC1(c2cccnc2)C=CCC1 (configuration not stated)
T/C [8]: 100 % of control | T/C [9]: 102 % of control | T/C [10]: 100 % of control

c1ccc2c(c1)CCCN2c1nc(N2CCCC2)nc(N2CCOCC2)n1
T/C [11]: 99 % of control | T/C [12]: 89 % of control | T/C (dose: 200.0 mg/kg/injection, schedule: Q01DX009 (ip), vehicle: saline): 92 % of control

COC(=O)C1=C(C(=O)OC)C2(c3ccccc3-c3ccccc32)C2C=CC=NN12 (configuration not stated)
T/C [13]: 100 % of control | T/C [14]: 103 % of control | T/C [15]: 100 % of control

CCn1c(C)nc2c(N)cc(C(F)(F)F)cc21 (tested in a mixture with another compound)
T/C (dose: 30.0 mg/kg/injection, schedule: Q01DX005 (ip), vehicle: Klucel (hydroxypropylcellulose) (HPC)): 95 % of control | T/C (dose: 60.0 mg/kg/injection, schedule: Q01DX005 (ip), vehicle: Klucel (hydroxypropylcellulose) (HPC)): 100 % of control | T/C (dose: 120.0 mg/kg/injection, schedule: Q01DX005 (ip), vehicle: Klucel (hydroxypropylcellulose) (HPC)): 99 % of control

C[Si](CNCCN)(c1ccccc1)c1ccccc1
T/C [16]: 103 % of control | T/C [17]: 102 % of control | T/C [5]: 96 % of control and 97 % of control

Nc1c(Cl)ccc2cccnc12
T/C (dose: 50.0 mg/kg/injection, schedule: Q01DX005 (ip), vehicle: saline + Tween-80 + alcohol): 107 % of control | T/C (dose: 100.0 mg/kg/injection, schedule: Q01DX005 (ip), vehicle: saline + Tween-80 + alcohol): 107 % of control | T/C (dose: 200.0 mg/kg/injection, schedule: Q01DX005 (ip), vehicle: saline + Tween-80 + alcohol): 110 % of control

COC(=O)C1=CO[C@@H](O)[C@@H]2C(C)OC(=O)C[C@H]12 (some centres not stated)
T/C [2]: 104 % of control | T/C [3]: 104 % of control | T/C [4]: 109 % of control

CC(=O)CC(=O)c1ccc(F)cc1.CC(=O)CC(=O)c1ccc(F)cc1.[Cu]
T/C (dose: 10.0 mg/kg/injection, schedule: Q01DX009 (ip), vehicle: saline with Tween-80): 88 % of control | T/C (dose: 20.0 mg/kg/injection, schedule: Q01DX009 (ip), vehicle: saline with Tween-80): 89 % of control

NNS(=O)(=O)c1cc(Cl)c(Cl)cc1Cl
T/C [18]: 94 % of control | T/C (dose: 100.0 mg/kg/injection, schedule: Q01DX009 (ip), vehicle: Klucel (hydroxypropylcellulose) (HPC)): 98 % of control | T/C [19]: 95 % of control
